The record followed here is PubChem BioAssay (NCI).

The structures appear in SMILES notation.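 Grown in 96-well plates, cells were treated for 48 hours with each compound at five concentrations. Insufficient inhibition: endpoint recorded as highest concentration tested. TGI marks complete inhibition of growth.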 Some results are limits rather than exact numbers.

Holding throughout (experiment): inhibition of tumour cell growth, NCI panel, 48 h
In assay [1] the test system is SNB-78 CNS.
Assay [2] deals with XF 498 CNS.
Assay [3] relates to DMS 114 small cell lung.
Assay [4] concerns DMS 273 small cell lung.
Assay [5] deals with LXFL 529 NSCLC.
The subject of assay [6] is M19-MEL melanoma.
Assay [7] has as its system DLD-1 colon.
Assay [8] concerns KM20L2 colon.
Assay [9] has as its system HOP-18 NSCLC.
In assay [10] the test system is BT-549 breast.
Assay [11] relates to DU-145 prostate.
The test system of assay [12] is MDA-MB-435.
Assay [13] relates to HS 578T breast.

On to `COC(=O)CCC(=O)N1C/C(=C\c2ccccc2)C(=O)/C(=C/c2ccccc2)C1`, for which the TGI was found to be 7.83 µM in assay [1]; 19.2 µM in assay [2]; 3.56 µM in assay [3]; 2.73 µM in assay [4]; 4.13 µM in assay [5]; 11.7 µM in assay [6]. In addition, the TGI was 10.9 µM in assay [7], 3.82 µM in assay [8] and 6.85 µM in assay [9].

As to `CC(C)(C)C1CCC2c3c([nH]c4ncccc34)C3C(=O)N(c4ccccc4)C(=O)C3C2C1` (configuration not stated), the TGI in [1], in assay [2], in assay [3], in assay [4], in [5] and in [6] was more than 100 µM throughout. The TGI in assay [7], in assay [8] and in assay [9] was more than 100 µM each time.

Consider `Cc1ccc(S(=O)(=O)NC(=O)NCCc2ccccc2)cc1`, for which the TGI in assay [1], in [2], in assay [3], in [5], in [6] and in assay [7] was more than 100 µM each time. Besides, the TGI in assay [8] and in assay [9] was more than 100 µM each time.

For `N#Cc1c(-c2ccccc2)cc(-c2ccc(N)cc2)[nH]c1=O`, the TGI in assay [1], in [3], in assay [4], in assay [5], in assay [6] and in assay [7] was more than 100 µM throughout. The TGI in assay [8] and in [9] was more than 100 µM in each case.

As to `CCOC(=O)C1C=C2O[C@@H]3OC4(CCCCC4)O[C@@H]3C2C2C(=O)CCC(=O)[C@@]12C(=O)OC` (some centres not stated), the TGI in [1], in [2], in assay [3], in assay [4], in assay [5] and in assay [6] was more than 100 µM each time. The TGI in assay [7], in assay [8] and in assay [9] was more than 100 µM each time.

Regarding `CCC/C=C\C=C\C1(NS(=O)(=O)c2ccc(C)cc2)CCC(C(C)(C)C)CC1` (configuration not stated), the TGI is 72.3 µM in [1]; 35.7 µM in [2]; 27.9 µM in [4]; more than 100 µM in [5]; 44.9 µM in assay [6]; 45.3 µM in assay [7]. Also, the TGI in assay [8] is 35.6 µM; in assay [9] it was more than 100 µM.

For the molecule `Nc1ccc(-c2cc(C(=O)Nc3nccs3)[nH]c(=S)n2)cc1`, the TGI in assay [1], in [2], in [3], in assay [5], in assay [6] and in assay [7] was more than 100 µM each time. Moreover, the TGI in assay [8] and in assay [9] was more than 100 µM each time.

Regarding `CCCCC(C)/C=C/C(=O)C1=C(O)/C(=C/C(=O)O)OC1=O` (configuration not stated), the TGI in assay [1], in assay [2], in assay [3], in assay [4], in assay [5] and in assay [8] was more than 100 µM throughout. This molecule also gave a TGI in assay [9] of more than 100 µM.

Regarding `CC(C)(C)OP(=O)(OC(C)(C)C)C(O)c1ccc(/C=C(\C#N)C(N)=O)cc1` (configuration not stated), the TGI in assay [1], in assay [2], in [3], in assay [4], in [5] and in assay [6] was more than 100 µM in each case. Besides, the TGI in assay [7] and in assay [8] was more than 100 µM throughout.

For the molecule `Cn1c(=O)nc2n(-c3ccc(Cl)cc3)c(-c3ccccc3)c(-c3ccccc3)nc-2c1=O`, the TGI in assay [1] is more than 100 µM; in [2], 42.2 µM; in assay [3], more than 100 µM; in assay [4], 59.3 µM; in assay [5], more than 100 µM; in assay [7], more than 100 µM. Besides, the TGI in assay [8] and in assay [9] was more than 100 µM each time.

For the molecule `O=C1/C(=C/c2ccc3c(c2)OCCO3)CCC/C1=C\c1ccc2c(c1)OCCO2`, the TGI in assay [1] was more than 100 µM; in assay [4] it was 43.9 µM; in assay [5], more than 100 µM; in [6], 81.9 µM; in [7], 48.4 µM; in assay [8], 37.5 µM. This molecule also yielded a TGI in [9] of 80.2 µM.

With `Cc1cccc(C)c1NC(=O)CCC/C(CC(=O)c1ccc(F)cc1)=N\NC(=O)C(=O)NN`, the TGI in assay [1], in assay [2], in [3], in assay [4], in assay [5] and in assay [6] was more than 100 µM each time. For the same molecule, the TGI in [7], in [8] and in assay [9] was more than 100 µM each time.

For `O=C1C(=C2CCCC2)CCC1CN1CCCCC1` (configuration not stated), the TGI in assay [1] is 41.4 µM; in assay [3], 41.2 µM; in [5], 26.2 µM; in assay [6], more than 100 µM; in assay [8], 32.9 µM; in assay [9] it was 28.7 µM.

With `CC1(C)CCCC2(C)C3C(O)CC2(C)C(O)C31` (configuration not stated), the TGI in [1], in assay [2], in [3], in assay [5], in assay [6] and in assay [7] was more than 100 µM in each case. Also, the TGI in [8] and in [9] was more than 100 µM throughout.

For the molecule `O=c1c2cc(Br)cc(Br)c2nc(CCCl)n1-c1ccc(O)c([N+](=O)[O-])c1`, the TGI in assay [1] is 62.3 µM; in assay [3], 36.3 µM; in assay [4], 36.9 µM; in assay [5] it was 30.3 µM; in assay [6] it was 29.8 µM; in [7], 36.6 µM. In assay [9], this molecule yielded a TGI of 30.4 µM.

Take `C1OC1CN1CCN(CC2CO2)CC1` (configuration not stated): the TGI in [1], in assay [2], in assay [3], in assay [4], in assay [5] and in [6] was more than 100 µM throughout. For the same molecule, the TGI in assay [7], in assay [8] and in [9] was more than 100 µM each time.

As for `CN(C)CCC(/C=C/c1ccccc1)=N\Nc1ccc(Cl)c(Cl)c1`, the TGI in assay [1] was 15.4 µM; in assay [2], 7.23 µM; in [4], 6.42 µM; in [5], 4.13 µM; in [6], 15 µM; in assay [7] it was 11 µM. Moreover, the TGI in assay [8] turned out to be 4.54 µM; in [9], 8.28 µM.

Consider `O=C(O)[C@@H]1OCCOCCO[C@@H](C(=O)O)[C@H](C(=O)O)OCCOCCO[C@H]1C(=O)O`, for which the TGI in assay [1] was more than 100 µM; in assay [2], more than 100 µM; in assay [3] it was more than 92.3 µM; in assay [4] it was more than 100 µM; in [5] it was more than 100 µM; in assay [6], more than 100 µM. Further, the TGI in [7] is more than 61.8 µM; in [8], more than 100 µM; in [9], more than 100 µM.

Take `C/C(=N\NC(=O)C[N+](C)(C)C)c1sc(-c2cccnc2)nc1C`: the TGI in [1], in assay [2], in assay [3], in assay [4], in [5] and in assay [6] was more than 100 µM each time. The TGI in assay [7] and in assay [8] was more than 100 µM in each case.

On to `CC1=CC(C)(c2c[nH]c3ccccc23)CC(C)(C)c2c1[nH]c1ccccc21` (configuration not stated), for which the TGI in assay [1] was more than 100 µM; in [2] it was 72.1 µM; in assay [3] it was 36.5 µM; in assay [5], more than 100 µM; in [6], 43.7 µM; in assay [7] it was 27.2 µM. In addition, the TGI was 31.4 µM in assay [8] and more than 100 µM in assay [9].

For `CCCCCCCCOCC(O)CO` (configuration not stated), the TGI in assay [1], in assay [2], in assay [3], in assay [4], in assay [5] and in [6] was more than 100 µM in each case. The TGI in [7], in assay [8] and in assay [9] was more than 100 µM in each case.

With `Cc1cc(N(CCC#N)CCC#N)ccc1N=Nc1cc(Cl)ccc1Cl`, the TGI in assay [1] is 22 µM; in assay [3] it was 22.9 µM; in assay [4], 29.6 µM; in assay [5], 3.35 µM; in [6], 26.6 µM; in [7], 26.1 µM. In [9], this molecule registered a TGI of 22.1 µM.

Turning to `CC1=C(C(=O)NCc2ccccc2)C(c2ccc(Cl)c(Cl)c2)C(C(=O)NCc2ccccc2)=C(C)N1`, the TGI in assay [1], in assay [2], in assay [3], in assay [4], in assay [5] and in assay [6] was more than 100 µM each time. For the same molecule, the TGI in [7] and in [8] was more than 100 µM each time.

On to `O=C1N2Cc3c4ccc5c3CN3C(=O)N6Cc7c(ccc(c7CN1C6(c1ccccc1)C23c1ccccc1)OCCOCCOc1cc(Br)c(Br)cc1OCCOCCO4)OCCOCCOc1cc(Br)c(Br)cc1OCCOCCO5` (configuration not stated), for which the TGI in assay [1] was more than 100 µM; in [3], more than 100 µM; in [4], more than 100 µM; in assay [5] it was more than 100 µM; in [6], more than 100 µM; in assay [7], 42.1 µM. Besides, the TGI in assay [8] and in assay [9] was more than 100 µM each time.

Regarding `C/C(=N\NC(N)=S)c1ccc(C)c(C)c1`, the TGI in assay [1] was more than 100 µM; in assay [2], 48.1 µM; in [3], 38.3 µM; in assay [4] it was more than 100 µM; in assay [5], more than 100 µM; in assay [6], more than 100 µM. The TGI in assay [7], in assay [8] and in assay [9] was more than 100 µM in each case.

On to `CC[C@@]1(OC(=O)C(N)CCCCN)C(=O)OCc2c1cc1n(c2=O)Cc2cc3ccccc3nc2-1` (some centres not stated), for which the TGI in assay [1] is more than 100 µM; in [10], 10.9 µM; in assay [2] it was 1.78 µM; in assay [3] it was 0.263 µM; in [4] it was 0.366 µM; in assay [5], 4.34 µM. Moreover, the TGI is 0.25 µM in assay [11]; 0.509 µM in [6]; more than 27.1 µM in assay [7]; 12.5 µM in assay [8]; 1.26 µM in assay [12]; more than 100 µM in [13]. In addition, the TGI in assay [9] is more than 23 µM.

In the case of `N#Cc1ccc(/C=C(/C(=O)c2ccccc2)c2ccccc2)cc1`, the TGI in assay [1] was 14.3 µM; in assay [2], 16.4 µM; in assay [3], 31.5 µM; in assay [4], 26.2 µM; in [5], 20.4 µM; in assay [6] it was 31.8 µM. Further, the TGI is 13 µM in assay [7], 31.2 µM in [8] and more than 55.1 µM in [9].

For `Cc1ccc(S(=O)(=O)N/N=C(\c2nc3ccc([N+](=O)[O-])cc3[nH]c2=O)C(O)c2ccc([N+](=O)[O-])cc2)cc1` (configuration not stated), the TGI in assay [1], in [2], in assay [3], in [4], in assay [5] and in [6] was more than 100 µM in each case. The TGI in assay [7] and in assay [8] was more than 100 µM each time.
